Results from patent US7495104B2, “Quinoline or quinazoline derivatives inhibiting auto-phosphorylation of fibroblast growth factor receptors” (Kirin Beer Kabushiki Kaisha, priority 2001, dated 2009).
pIC50: −log10 of the molar value.

Target: Bek (Homo sapiens, UniProt P21802)
Assay: Inhibitory activity against Bek-autophosphorylation using ELISA method in OCUM-2MD3 cells
Format: cell-based
Settings: 1 hr with compound, read-out: IC50 (concentration necessary for inhibiting 50% of Bek-phosphorylation)
Procedure, shortened: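 Sandwich ELISA (anti-phosphotyrosine capture, anti-Bek detection, peroxidase, 450 nm) measured Bek autophosphorylation in OCUM-2MD3 lysates after 1 hr compound treatment at 37° C in 0.1% serum medium. IC50 derived by scaling between no-drug (100%) and excess positive control at 1000 nM (0%).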

Sequence of Bek (P21802 431-767 limits assumed): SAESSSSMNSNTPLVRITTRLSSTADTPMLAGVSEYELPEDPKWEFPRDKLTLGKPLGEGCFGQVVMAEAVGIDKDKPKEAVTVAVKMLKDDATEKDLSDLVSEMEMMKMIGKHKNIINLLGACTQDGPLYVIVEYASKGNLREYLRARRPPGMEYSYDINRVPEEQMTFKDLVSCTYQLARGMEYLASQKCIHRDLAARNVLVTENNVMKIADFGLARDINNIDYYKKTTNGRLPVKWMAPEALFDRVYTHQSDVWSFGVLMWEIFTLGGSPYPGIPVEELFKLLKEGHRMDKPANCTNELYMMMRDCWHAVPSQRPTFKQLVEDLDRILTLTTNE

| Compound | pIC50 |
| --- | --- |
| COc1cc2c(Oc3ccc(NC(=O)NCCC(C)(C)C)c(Cl)c3)ccnc2cc1OCc1ccccc1 [Compound 163, 1-[4-(7-Benzyloxy-6-methoxy-quinolin-4-yloxy)-2-chloro-phenyl]-3-(3,3-dimethyl-butyl)-urea] | 6.43 |
| COCCN1CCC(COc2cc3nccc(Oc4ccc(NC(=O)NCCC(C)(C)C)c(Cl)c4)c3cc2OC)CC1 [Compound 171, 1-(2-Chloro-4-{6-methoxy-7-[1-(2-methoxy-ethyl)-piperidin-4-ylmethoxy]-quinolin-4-yloxy}-phenyl)-3-(3,3-dimethyl-butyl)-urea] | 7.49 |
| COc1cc2c(Oc3ccc(NC(=O)NCCC(C)(C)C)cc3)ccnc2cc1OCCN1CCC(O)CC1 [Compound 373, 1-(3,3-Dimethyl-butyl)-3-(4-{7-[2-(4-hydroxy-piperidin-1-yl)-ethoxy]-6-methoxy-quinolin-4-yloxy}-phenyl)-urea] | > 8.00 |
| COc1cc2c(Oc3ccc(Nc4ccc(C(C)(C)C)cc4)cc3)ccnc2cc1OCCN1CCCCC1 [Compound 38, (4-Tert-butylphenyl)-{4-[6-methoxy-7-(2-piperidin-1-ylethoxy)-quinolin-4-yloxy]phenyl}amine] | 6.33 |
| COc1cc2c(Oc3ccc(Nc4ccc(C(C)(C)C)cc4)cc3)ccnc2cc1OCCCCN1CCCCC1 [Compound 36, (4-Tert-butylphenyl)-{4-[6-methoxy-7-(4-piperidin-1-ylbutoxy)-quinolin-4-yloxy]phenyl}amine] | 6.61 |
| COc1cc2nccc(Oc3ccc(NC(=O)NC4CCCC(C)(C)C4)c(F)c3)c2cc1OC (centres unmarked) [Compound 109, 1-[4-(6,7-Dimethoxy-quinolin-4-yloxy)-2-fluoro-phenyl]-3-(3,3-dimethyl-cyclohexyl)-urea] | > 8.00 |
| COc1cc2c(Oc3ccc(Nc4ccc(C(C)(C)C)cc4)cc3)ccnc2cc1OCC1CCCCN1C (centres unmarked) [Compound 55, (4-Tert-butylphenyl)-{4-[6-methoxy-7-(1-methylpiperidin-2-ylmethoxy)quinolin-4-yloxy]phenyl}amine] | 5.10 |
| COc1cc2c(Oc3ccc(NC(=O)NCCC(C)(C)C)c(Cl)c3)ccnc2cc1OCCCN1CCC(CCO)CC1 [Compound 267, 1-[2-Chloro-4-(7-{3-[4-(2-hydroxy-ethyl)-piperidin-1-yl]-propoxy}-6-methoxy-quinolin-4-yloxy)-phenyl]-3-(3,3-dimethyl-butyl)-urea] | 7.57 |
| COc1cc2c(Oc3ccc(Nc4ccc(C(C)(C)C)cc4)cc3)ccnc2cc1OCC(O)CN1CCOCC1 (centres unmarked) [Compound 59, 1-{4-[4-(4-Tert-butyl-phenylamino)phenoxy]-6-methoxyquinolin-7-yloxy}-3-morpholin-4-ylpropan-2-ol] | 6.85 |
| COc1cc2nccc(Oc3ccc(Nc4ccc(C(C)(C)C)cc4)cc3)c2cc1OCCN(CCO)CCO [Compound 358, 2-[(2-{4-[4-(4-Tert-butyl-phenylamino)-phenoxy]-7-methoxy-quinolin-6-yloxy}-ethyl)-(2-hydroxy-ethyl)-amino]-ethanol] | 7.29 |
| COc1cc2c(Oc3ccc(Nc4ccc(C(C)(C)C)cc4)cc3)ccnc2cc1OCCCN(CCO)CCO [Compound 51, 2-[(3-{4-[4-(4-Tert-butylphenylamino)phenoxy]-6-methoxy-quinolin-7-yloxy}propyl)-(2-hydroxyethyl)amino]ethanol] | 7.51 |
| COc1cc2c(Oc3ccc(Nc4ccc(C(C)(C)C)cc4)cc3)ccnc2cc1OCCN1CC(C)CC(C)C1 (centres unmarked) [Compound 239, (4-Tert-butyl-phenyl)-(4-{7-[2-(3,5-dimethyl-piperidin-1-yl)-ethoxy]-6-methoxy-quinolin-4-yloxy}-phenyl)-amine] | 6.05 |
| COc1cc2c(Oc3ccc(NC(=O)NCCC(C)(C)C)cc3)ccnc2cc1OCCN1CC(C)CC(C)C1 (centres unmarked) [Compound 120, 1-(3,3-Dimethyl-butyl)-3-(4-{7-[2-(3,5-dimethyl-piperidin-1-yl)-ethoxy]-6-methoxy-quinolin-4-yloxy}-phenyl)-urea] | 7.68 |
| COc1cc2c(Oc3ccc(NC(=O)NCCC(C)(C)C)c(Cl)c3)ccnc2cc1OC[C@@H](O)CN1CCOCC1 [Compound 197, 1-{2-Chloro-4-[7-(2-hydroxy-3-morpholin-4-yl-propoxy)-6-methoxy-quinolin-4-yloxy]-phenyl}-3-(3,3-dimethyl-butyl)-urea] | > 8.00 |
| COc1cc2c(Oc3ccc(NC(=O)NCCC(C)(C)C)c(Cl)c3)ccnc2cc1OCCCN1CC(C)OC(C)C1 (centres unmarked) [Compound 317, 1-(2-Chloro-4-{7-[3-(2,6-dimethyl-morpholin-4-yl)-propoxy]-6-methoxy-quinolin-4-yloxy}-phenyl)-3-(3,3-dimethyl-butyl)-urea] | 7.69 |
| COc1cc2nccc(Oc3ccc(NC(=O)NCCC(C)(C)C)c(C(F)(F)F)c3)c2cc1OC [Compound 150, 1-[4-(6,7-Dimethoxy-quinolin-4-yloxy)-2-trifluoromethyl-phenyl]-3-(3,3-dimethyl-butyl)-urea] | 7.20 |

| Compound | pIC50 |
| --- | --- |
| COc1cc2c(Oc3ccc(NC(=O)NCCC(C)(C)C)c(Cl)c3)ccnc2cc1OCCCCN1CC(C)OC(C)C1 (centres unmarked) [Compound 321, 1-(2-Chloro-4-{7-[4-(2,6-dimethyl-morpholin-4-yl)-butoxy]-6-methoxy-quinolin-4-yloxy}-phenyl)-3-(3,3-dimethyl-butyl)-urea] | 7.60 |
| COc1cc2c(Oc3ccc(NC(=O)NCCC(C)(C)C)c(Cl)c3)ccnc2cc1OCC1CCCNC1 (centres unmarked) [Compound 190, 1-{2-Chloro-4-[6-methoxy-7-(piperidin-3-ylmethoxy)-quinolin-4-yloxy]-phenyl}-3-(3,3-dimethyl-butyl)-urea] | 7.47 |
| COc1cc2nccc(Oc3ccc(NC(=O)NCCC(C)(C)C)cc3)c2cc1OCCCN1CCC(O)CC1 [Compound 322, 1-(3,3-Dimethyl-butyl)-3-(4-{6-[3-(4-hydroxy-piperidin-1-yl)-propoxy]-7-methoxy-quinolin-4-yloxy}-phenyl)-urea] | 6.61 |
| COc1cc2c(Oc3ccc(NC(=O)NCCC(C)(C)C)cc3)ccnc2cc1OCC(O)CN1CC(C)CC(C)C1 (centres unmarked) [Compound 251, 1-(3,3-Dimethyl-butyl)-3-(4-{7-[3-(3,5-dimethyl-piperidin-1-yl)-2-hydroxy-propoxy]-6-methoxy-quinolin-4-yloxy}-phenyl)-urea] | 7.68 |
| COc1cc2c(Oc3ccc(Nc4ccc(C(C)(C)C)cc4)cc3)ccnc2cc1OCCN1CCOCC1 [Compound 37, (4-Tert-butylphenyl)-{4-[6-methoxy-7-(2-morpholin-4-ylethoxy)quinolin-4-yloxy]phenyl}amine] | 6.46 |
| COc1cc2nccc(Oc3ccc(NC(=O)NC4CC(C)CC(C)(C)C4)c(Cl)c3)c2cc1OC (centres unmarked) [Compound 107, 1-[2-Chloro-4-(6,7-dimethoxy-quinolin-4-yloxy)-phenyl]-3-(3,3,5-trimethyl-cyclohexyl)-urea] | > 8.00 |
| COc1cc2c(Oc3ccc(NC(=O)NCCC(C)(C)C)c(Cl)c3)ccnc2cc1OCC(O)CN1CCCN(C)CC1 (centres unmarked) [Compound 196, 1-(2-Chloro-4-{7-[2-hydroxy-3-(4-methyl-[1,4]diazepan-1-yl)-propoxy]-6-methoxy-quinolin-4-yloxy}-phenyl)-3-(3,3-dimethyl-butyl)-urea] | 7.76 |
| COc1cc2c(Oc3ccc(NC(=O)NCCC(C)(C)C)cc3)ccnc2cc1OCCCN1CCC(O)CC1 [Compound 96, 1-(3,3-Dimethyl-butyl)-3-(4-{7-[3-(4-hydroxy-piperidin-1-yl)-propoxy]-6-methoxy-quinolin-4-yloxy}-phenyl)-urea] | > 8.00 |
| COc1cc2c(Oc3ccc(NC(=O)NCCC(C)(C)C)c(F)c3)ccnc2cc1OCCCN1CCC(O)CC1 [Compound 302, 1-(3,3-Dimethyl-butyl)-3-(2-fluoro-4-{7-[3-(4-hydroxy-piperidin-1-yl)-propoxy]-6-methoxy-quinolin-4-yloxy}-phenyl)-urea] | 7.58 |
| COc1cc2c(Oc3ccc(NC(=O)NCCC(C)(C)C)c(Cl)c3)ccnc2cc1OCCCN1CCCCCC1 [Compound 181, 1-{4-[7-(3-Azepan-1-yl-propoxy)-6-methoxy-quinolin-4-yloxy]-2-chloro-phenyl}-3-(3,3-dimethyl-butyl)-urea] | 7.58 |
| COc1cc2nccc(Oc3ccc(Nc4ccc(N5CCOCC5)cc4)cc3)c2cc1OC [Compound 44, [4-(6,7-Dimethoxyquinolin-4-yloxy)phenyl]-(4-morpholin-4-ylphenyl)amine] | 7.12 |
| COc1cc2nccc(Oc3ccc(NC(=O)NCCC(C)(C)C)cc3)c2cc1OCC(O)CN(C)C (centres unmarked) [Compound 226, 1-{4-[6-(3-Dimethylamino-2-hydroxy-propoxy)-7-methoxy-quinolin-4-yloxy]-phenyl}-3-(3,3-dimethyl-butyl)-urea] | 7.55 |
| COc1cc2c(Oc3ccc(Nc4ccc(C(C)(C)C)cc4)c(Cl)c3)ccnc2cc1OCCN1CCC(O)CC1 [Compound 278, 1-(2-{4-[4-(4-Tert-butyl-phenylamino)-3-chloro-phenoxy]-6-methoxy-quinolin-7-yloxy}-ethyl)-piperidin-4-ol] | 5.95 |
| CCN(CC)CCCOc1cc2nccc(Oc3ccc(NC(=O)NCCC(C)(C)C)c(Cl)c3)c2cc1OC [Compound 183, 1-{2-Chloro-4-[7-(3-diethylamino-propoxy)-6-methoxy-quinolin-4-yloxy]-phenyl}-3-(3,3-dimethyl-butyl)-urea] | 7.81 |
| COc1cc2c(Oc3ccc(NC(=O)NCCC(C)(C)C)c(F)c3)ccnc2cc1OCCCNCCO [Compound 332, 1-(3,3-Dimethyl-butyl)-3-(2-fluoro-4-{7-[3-(2-hydroxy-ethylamino)-propoxy]-6-methoxy-quinolin-4-yloxy}-phenyl)-urea] | 7.97 |
| COc1cc2c(Oc3ccc(Nc4ccc(C(C)(C)C)cc4)cc3)ccnc2cc1OCC(O)CN1CCC(N2CCCC2)CC1 (centres unmarked) [Compound 259, 1-{4-[4-(4-Tert-butyl-phenylamino)-phenoxy]-6-methoxy-quinolin-7-yloxy}-3-(4-pyrrolidin-1-yl-piperidin-1-yl)-propan-2-ol] | 7.33 |
